Results: US8349577B2, “Method for evaluating blood-neural barrier permeability” (Research Foundation For Mental Hygiene, Inc., priority 2010, dated 2013)
“Also recorded” adds a separate entry of the source.

What was measured:
[1] = test system: PLA2 activity in lumbar CSF; assay: Continuous fluorescence PLA2 activity assay with lumbar CSF (Bis-BODIPY FL C11-PC-labeled DOPC liposomes); assay type: biochemical, human; details: for Inhibition of PLA2 activity from lumbar CSF: 5 μL lumbar CSF incubated with inhibitor, FIGS. 3A-3C
Description: (§1) PLA2 activity assays were carried out in triplicates using a continuous fluorescent measurement. In a 96-well microplate, 5 μL lumbar CSF (or 10 μM recombinant sPLA2) was diluted in 90 μL PLA2 assay buffer (10 mM Tris-HCl, pH 7.4; 100 mM KCl; 5 mM CaCl2; 1 mM DTT). Then, 5 μL Bis-BODIPY® FL C11-PC-labeled 100% DOPC liposomes were added to each well and the microplate was immediately placed in a temperature controlled (30° C.) cytofluor multi-well plate reader series 4000 (PerSeptive Biosystems®, Foster City, Calif.). The fluorescence intensity was recorded over 90 min (91 cycles of 60 sec each) at 485 nm excitation and 530 nm emission. Finally, PLA2 activity was evaluated using linear curve fitting with Graph Prism 3.0 (GraphPad Software™, San Diego, Calif.).
(§2) Although there are currently twenty-two different PLA2 enzymes classified in five families (sPLA2, cPLA2, iPLA2, PAF-AH and lysosomal PLA2), there is currently no known tool for the specific characterization of each of these isozymes. Thus, to characterize the activity of each new PLA2 the current approach is to determine to which family the PLA2 enzyme belongs. For this purpose, a battery of inhibitors more or less specific against each PLA2 family is generally used to discriminate one family from another.
(§3) Stock solutions and serial dilutions of PLA2 inhibitors (AACOCF3, BEL and Thioetheramide-PC) were prepared in PLA2 assay buffer supplemented by 4.25 mM Triton X-100. Each assay was carried out in the absence or presence of 5 μL of the appropriate inhibitor.

recombinant sPLA2 = assay: Continuous fluorescence PLA2 activity assay with recombinant sPLA2 (Bis-BODIPY FL C11-PC-labeled DOPC liposomes); assay type: biochemical; details: for Inhibition of PLA2 activity from recombinant sPLA2: recombinant sPLA2 incubated with inhibitor, FIGS. 3A-3C
Description: as §1, §2, §3

[2] = various concentrations of calcium, FIG. 3D

Molecule | Inhibition of PLA2 activity from lumbar CSF [1] | Inhibition of PLA2 activity from recombinant sPLA2 (recombinant sPLA2) | Effect of increasing calcium concentration on PLA2 activity in lumbar CSF [1, 2] | Effect of increasing calcium concentration on recombinant sPLA2 activity (recombinant sPLA2; [2])
CCCCC/C=C\C/C=C\C/C=C\C/C=C\CCCC(=O)C(F)(F)F [AACOCF3] | not and failed to do so | failed to do so |  | 
O=C1O/C(=C/Br)CCC1c1cccc2ccccc12 (centres unmarked) [BEL] | not and failed to do so | failed to do so |  | 
CCCCCCCCCCCCCCCCSC[C@H](COP(=O)(O)OCC[N+](C)(C)C)NC(=O)CCCCCCCCCCCCCCC [thioetheramide-PC] | strongly inhibited; also recorded: dose-dependently inhibited | dose-dependently inhibited |  | 
calcium |  |  | increase of PLA2 activity | increase of PLA2 activity
